Data on 3 molecules can be found in EP1707622A1, “USE OF COMPOUNDS THAT REGULATE HDAC6 TUBULIN DEACETYLASE ACTIVITY IN THE PREPARATION OF PHARMACEUTICAL COMPOSITIONS, METHOD OF IDENTIFYING THE AFOR[…], SAID PHARMACEUTICAL COMPOUNDS AND APPLICATIONS THEREOF” (UNIVERSIDAD AUTONOMA DE MADRID CIUDAD UNIVERSITARIA …, priority 2004, dated 2005).

The test system of assay [1] is J77 cells. The experiment in a line: Microtubule organizing centre (MTOC) translocation assay. The assay is classed as cell-based, human. The conditions noted are these: for restoration of MTOC translocation in cells transfected with HDAC6-GFP: J77 cells transfected with HDAC6-GFP, SEE-pulsed Raji cells, 3 µM TSA, Figures 7A and B; for MTOC translocation: Figure 7B. On the procedure: A 1:1 ratio of Raji cells and T cells transfected with HDAC6 were placed in contact for 15 minutes at 37°C in RPMI medium. The cell conjugates were then gently resuspended and plated on PLL-coated cover slips for 15 more minutes as previously described (Sancho et al., 2002). The cell conjugates were then fixed, permeabilized and stained for α-tubulin for the purpose of observation by immunofluorescence microscopy. The MTOC was considered to be redirected when it was in close proximity with the T cell plasma membrane, between the cell nucleus and the contact area with the antigen-presenting cell. At least 200 cell conjugates were counted in each experiment.

Assay [2] relates to J77 cells. The assay is described as follows: CD3 clustering in the central region of the immunological synapse. The assay is classed as cell-based, human. The conditions noted are these: for reversion of the prevention of CD3 clustering caused by HDAC6-GFP: J77 cells transfected with HDAC6-GFP, SEE-marked Raji cells, 30 minutes at 37°C, Figures 5A and B.
For assay [3], the system named is J77 cells. The assay is described as follows: LFA-1 organization in the immunological synapse peripheral ring. The assay is classed as cell-based, human. The note with it: J77 cells with SEE-marked Raji cells, 30 minutes at 37°C; Figure 6 and data not shown.
In another assay the target is T1, HDAC6 (Homo sapiens, UniProt Q9UBN7).
T1 sequence (Q9UBN7 1-1215): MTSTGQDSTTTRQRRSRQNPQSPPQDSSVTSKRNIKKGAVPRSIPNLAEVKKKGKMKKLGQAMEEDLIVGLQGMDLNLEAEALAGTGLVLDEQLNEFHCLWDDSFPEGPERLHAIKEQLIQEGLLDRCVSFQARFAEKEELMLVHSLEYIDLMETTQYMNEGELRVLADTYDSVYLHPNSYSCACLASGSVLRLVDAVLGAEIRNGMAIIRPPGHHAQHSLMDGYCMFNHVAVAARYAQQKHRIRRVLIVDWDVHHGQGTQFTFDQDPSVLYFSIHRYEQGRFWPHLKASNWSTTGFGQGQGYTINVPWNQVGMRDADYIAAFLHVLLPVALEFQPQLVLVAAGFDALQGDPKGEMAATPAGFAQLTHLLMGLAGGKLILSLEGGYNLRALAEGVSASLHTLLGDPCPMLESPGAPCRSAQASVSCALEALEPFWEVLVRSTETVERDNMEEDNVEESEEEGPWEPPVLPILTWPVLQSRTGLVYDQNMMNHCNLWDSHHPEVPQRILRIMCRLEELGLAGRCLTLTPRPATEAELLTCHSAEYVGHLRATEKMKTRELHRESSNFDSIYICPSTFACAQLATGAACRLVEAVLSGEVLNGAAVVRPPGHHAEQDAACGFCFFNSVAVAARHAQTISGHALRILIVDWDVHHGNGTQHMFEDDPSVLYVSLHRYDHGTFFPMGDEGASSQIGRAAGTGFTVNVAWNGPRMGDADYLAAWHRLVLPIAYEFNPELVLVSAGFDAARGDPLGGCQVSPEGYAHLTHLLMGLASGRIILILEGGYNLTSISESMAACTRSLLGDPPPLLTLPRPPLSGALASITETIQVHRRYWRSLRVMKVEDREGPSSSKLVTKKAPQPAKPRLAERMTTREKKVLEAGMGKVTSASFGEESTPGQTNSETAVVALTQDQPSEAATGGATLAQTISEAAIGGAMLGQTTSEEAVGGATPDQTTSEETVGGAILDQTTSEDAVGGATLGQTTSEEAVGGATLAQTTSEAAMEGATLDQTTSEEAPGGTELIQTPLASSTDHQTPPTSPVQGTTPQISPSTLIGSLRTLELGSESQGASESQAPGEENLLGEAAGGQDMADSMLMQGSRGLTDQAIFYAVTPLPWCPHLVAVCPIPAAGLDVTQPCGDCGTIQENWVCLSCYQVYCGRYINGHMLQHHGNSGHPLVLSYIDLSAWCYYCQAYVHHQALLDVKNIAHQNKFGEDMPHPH
The conditions noted are these: CD4+ T lymphocytes and J77 cells pre-treated for 30 minutes (3µM TSA or 5 mM sodium butyrate), SEE-pulsed Raji cells; Figure 3B.

Setting [4] is: treatment effect in the quantitative analysis.

Where a SMILES comes first, the peptide text is derived from it. [ ]: non-standard residue; d: D form. Aoe = N[C@@H](CCCCCC(=O)[C@@H]1CO1)C(=O)O

Turning to `O=C1N[C@@H](Cc2ccccc2)C(=O)N2CCC[C@@H]2C(=O)N[C@@H](CCCCCC(=O)[C@@H]2CO2)C(=O)N[C@H]1Cc1ccccc1` [trapoxin B] (cyclo(FF[dP][Aoe])), the “restoration of MTOC translocation in cells transfected with HDAC6-GFP” value (shortened to “restoration of MTOC translocation”) in the assay with J77 cells [1] was “not”. Besides, the MTOC translocation result in the assay with J77 cells [1] (setting [4]) is recorded as “did not affect”. Moreover, in the assay with J77 cells [2], the “reversion of the prevention of CD3 clustering caused by HDAC6-GFP” value (shortened to “reversion”) was “not”.
Take `CC(/C=C/C(=O)NO)=C\[C@@H](C)C(=O)c1ccc(N(C)C)cc1` [TSA, Trichostatin A]: in the assay with J77 cells [1], the “restoration of MTOC translocation” value is recorded as “restored normal translocation”. The “kinetics of MTOC translocation” value with J77 cells [1] (cell conjugates between J77 and Raji cells, different times, Figure 7C) was “accelerates”. In the assay with J77 cells [1] (peripheral blood CD4+ lymphocytes with SEE-pulsed Raji cells), the MTOC translocation result was “increases”. Moreover, the “LFA-1 organization in the peripheral ring of the immunological synapse” value in the assay with J77 cells [3] is listed as “well organized”. The “kinetics of CD3 clustering in the central region of the immunological synapse” value in the assay on J77 cells [2] (J77 cells pre-treated, Raji cells marked with 1µg/ml SEE, different times, Figure 5C) is “accelerated”. Also, the “reversion” value with J77 cells [2] is given as “reverted”. Besides, in the assay with J77 cells [2] (pretreated cells in contact with SEE-marked Raji cells, Figure 5B), the CD3 clustering entry was “slight increase”.
`CCCC(=O)[O-].[Na+]` [sodium butyrate]: in the assay with J77 cells [1], the “restoration of MTOC translocation” value was “not”. Also, the MTOC translocation result in the assay with J77 cells [1] (setting [4]) is given as “did not affect”. Also, at HDAC6, the “acetylated tubulin staining in the contact site with antigen-presenting cells” value is reported as “weak”. Further, the “reversion” value with J77 cells [2] is listed as “not”.
